Data: patent US12065427B2, “Heterocyclic compounds capable of activating STING” (BOEHRINGER INGELHEIM INTERNATIONAL GMBH, priority 2021, dated 2024)
Values after ≈ are worked out from the molar mass of the structure shown.

Legend:
[1] = tested on: Human STING (hSTING, residues 155-341); assay: Interaction with hSTING as determined by Differential Scanning Fluorimetry (DSF); assay type: binding; details: 100 μM test compounds, 5 μM target protein
In short: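 Thermal shift of hSTING (residues 155-341, 5 μM) with test compounds at 100 μM in 20 mM Tris, 150 mM NaCl, pH 7.5, using 5× SYPRO Orange. Ramped 25 to 95 °C at 0.5 °C per cycle (15 s/cycle) by real-time PCR fluorescence. Tm from duplicate melting curves, averaged.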

STING HAQ-variant = target: T1, STING HAQ-variant (Homo sapiens, UniProt Q86WV6, G230A/H232R/R293Q/R71H); assay: IRF-inducible SEAP reporter assay in THP1-Blue ISG cells, STING HAQ-variant; assay type: cell-based; details: STING HAQ-variant (parental or re-introduced), 24 hours incubation
T1 construct: parental THP1-Blue™ ISG cell lines (which express endogenously HAQ); host or cells: THP1-Blue ISG (parental, endogenous HAQ) or STING-KO clone re-transduced with HAQ (MSCV-ires-GFP-Blasti)
In short: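 THP1-Blue ISG cells expressing STING HAQ, either endogenously (parental) or re-introduced after CRISPR knockout, were seeded at 10000 cells/well. They received 8-point compound dilutions (0.5% DMSO final) for 24 hours at 37° C. IRF-driven SEAP was read with Quanti-Blue at OD 620 nm after 30 minutes, and EC50 came from four-parameter fits.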

[2] = Solubility measurements (HTS) at pH 6.8; assay type: physicochemical; details: kinetic from dmso stock; aqueous McIlvaine buffer pH 6.8, 24 h at room temperature, from 10 mM DMSO stock; read-out: Soblubility
Description: Aqueous solubilities were determined from 10 mM stock solutions of the compounds in DMSO diluted to a final concentration of 250 μM with aqueous McIlvaine buffer at pH 6.8, or with acetonitrile/water (1:1) as a reference. Samples were shaken for 24 h at room temperature in 96-well plates (Whatman Uniplate® 96 wells, 750 μL, polypropylene, round bottom). The plate was then centrifuged at 3,000 rpm for 2 min. 250 μL of each sample were transferred to a Millipore MultiScreenHTS filter plate with a polycarbonate membrane, pore size 0.45 μm. Filtrates were collected by centrifugation at 3,000 rpm for 2 min. The dissolved concentrations were determined by UPLC/UV (Ultra-Performance Liquid Chromatography/ultraviolet) on a Waters ACQUITY UPLC® SQD system equipped with a Waters ACQUITY UPLC® BEH 2.1×50 mm C18 column, particle size 1.7 μm, using a short gradient with water/0.1% formic acid as solvent A and acetonitrile/0.1% formic acid as solvent B (5 to 95% B with 1.7 min total cycle time). Compounds signals were measured with a photodiode array UV detector operated at 254 nm. Solubilities were determined with a one point calibration by comparing peak areas relative to the reference standard using Waters Empower software.

STING H232R-variant = target: T2, STING H232R-variant (Homo sapiens, UniProt Q86WV6, H232R); assay: IRF-inducible SEAP reporter assay in THP1-Blue ISG cells, STING H232R-variant; assay type: cell-based; details: STING H232R-variant (WT), 24 hours incubation
T2 construct: expressed in transfected cells; host or cells: THP1-Blue ISG hSTING KO clone, retroviral MSCV-ires-GFP-Blasti
Excerpt: (§1) In Vitro Cytokine Induction Measured Via Activation of an Interferon Regulatory Factor Inducible Reporter Gene
(§2) Activation of the STING protein expressed in cell lines results in an increase of interferon production. By the stable integration of an interferon regulatory factor (IRF)-inducible SEAP gene (secreted embryonic alkaline phosphatase) reporter construct the functional interferon signaling pathway can be monitored. Using Invivogen's THP1-Blue™ ISG colorimetric enzyme assay and a suitable optical density (OD) reader the activity of SEAP can be detected and quantified. This technique could be used to characterize pharmacological modification of the STING pathway.
(§3) Several single nucleotide polymorphisms have been identified in the human STING gene. To determine the activity of the above described compounds, THP1-Blue™ ISG reporter cell lines expressing the different human STING variants have been generated. To do so, the endogenous human STING was first deleted using the CRISPR/CAS9 system: THP1-Blue ISG cells were electroporated with ALL-IN-ONE CRISPR plasmids targeting the STING gene (purchased from Sigma encoding the gRNA and GFP as a reporter gene for successful transduction). GFP positive cells then were sorted 24 h post transfection and expanded. Cells were then dispersed in semisolid methocel medium to allow single cell clone isolations. Clones were then screened for cGAMP responsiveness using the Quanti-Blue™ reporter assay. Non-responsive clones were subsequently analysed for STING loss by western blotting and sequencing of the STING locus.
(§4) For the overexpression of the human STING variants, a confirmed THP1-Blue™ ISG hSTING KO clone was transduced with individual retroviral plasmids (MSCV-ires-GFP-Blasti) encoding the allelic variants of hSTING (WT (H232R), HAQ, R232H, AQ and R293Q). Transduced cells were sorted for different levels of GFP fluorescence and STING allele expression was analysed by western blot.
(§5) Measurements of SEAP activity were performed in THP1-Blue™ ISG cells stably expressing the different human STING isoforms and the IRF-inducible SEAP reporter construct. Cells were cultivated in RPMI1640 medium with 10% fetal calf serum, 50 μg/ml Penicillin-Streptomycin, 100 μg/ml Zeocin, and 100 μg/ml Normocin in a 37°, 95% humidity and 5% CO2 incubator.
(§6) In preparation for the assay, the cells were distributed into the assay plates with a density of 10000 cells/15 μL per well. Compounds were prepared by an 8 point serial dilution in 50% aqueous DMSO and a final dilution step into medium to ensure a final DMSO concentration of 0.5% in the assay. 5 μL of diluted compounds were added to the plates, followed by a 24 hours incubation at 37° C.
(§7) At the day of the assay, 75 μl per well of Quanti-Blue™ reagent was added to all wells of the plate and the plate was incubated another 30 minutes at 37° C. The OD at 620 nm was measured on the EnVision reader (PerkinElmer).
(§8) EC50 values and Hill slopes were derived from 8-point four parametric non-linear curve fittings with the Megalab software (Boehringer Ingelheim) using the OD at 620 nm.
(§9) Data of EC50 values can be found in tables 2a-2e.
Data of EC50 values on STING H232R-variant can be found in table 2b: […]

STING R232H-variant = target: T3, STING R232H-variant (Homo sapiens, UniProt Q86WV6); assay: IRF-inducible SEAP reporter assay in THP1-Blue ISG cells, STING R232H-variant; assay type: cell-based; details: 24 hours incubation
T3 construct: expressed in transfected cells; host or cells: THP1-Blue ISG hSTING KO clone, retroviral MSCV-ires-GFP-Blasti
Excerpt: as §1, §2, §3, §4, §5, §6, §7, §8, §9
Data of EC50 values on STING R232H-variant can be found in table 2c: […]

STING R293Q-variant = target: T4, STING R293Q-variant (Homo sapiens, UniProt Q86WV6, H232R/R293Q); assay: IRF-inducible SEAP reporter assay in THP1-Blue ISG cells, STING R293Q-variant; assay type: cell-based; details: 24 hours incubation
T4 construct: expressed in transfected cells; host or cells: THP1-Blue ISG hSTING KO clone, retroviral MSCV-ires-GFP-Blasti
Excerpt: as §1, §2, §3, §4, §5, §6, §7, §8, §9
Data of EC50 values on STING R293Q-variant can be found in table 2d: […]

STING AQ-variant = target: T5, STING AQ-variant (Homo sapiens, UniProt Q86WV6, G230A/H232R/R293Q); assay: IRF-inducible SEAP reporter assay in THP1-Blue ISG cells, STING AQ-variant; assay type: cell-based; details: 24 hours incubation
T5 construct: expressed in transfected cells; host or cells: THP1-Blue ISG hSTING KO clone, retroviral MSCV-ires-GFP-Blasti
Excerpt: as §1, §2, §3, §4, §5, §6, §7, §8, §9
Data of EC50 values on STING AQ-variant can be found in table 2e: […]

in vitro = details: human, Caco-2, pH 7.4
Description: Cellular Permeability Measurements
Caco-2 cells were obtained from Leibniz Institute DSMZ-German Collection of Microorganisms and Cell Cultures (Braunschweig, Germany) and cultured in DMEM (Dulbecco's modified Eagle medium) containing (in final concentrations) 10% FCS (fetal calf serum), 1% NEAA (non-essential amino acids), 2 mM Glutamin, 100 U/mL Penicillin and 100 μg/mL Streptomycin. Caco-2 cells were seeded either onto 24-well Transwell inserts (Corning, #3379) for bidirectional permeability assays at a density of 160,000 cells/cm^2 and cultured for 3 weeks, with media change on every second day.
For bidirectional permeability assays 10 mM DMSO stock solutions were diluted in transport buffer (final concentrations: 128.13 mM NaCl, 5.36 mM KCl, 1 mM MgSO4, 1.8 mM CaCl2, 4.17 mM NaHCO3, 1.19 mM Na2HPO4, 0.41 mM NaH2PO4, 15 mM 2-[4-(2-hydroxyethyl)piperazin-1-yl]ethanesulfonic acid (HEPES), 20 mM glucose, pH 7.4) containing 0.25% bovine serum albumin to a final concentration of 10 μM of the test compounds and added to the apical or basal compartment. Cells were incubated with the compounds for up to 2 h. Samples from the opposite compartment were taken at different timepoints.
Compound concentrations in the compartments were quantified using a RapidFire-based high-throughput HPLC/MS/MS system (high performance liquid chromatography/mass spectrometry; Bio-Cius) that was customized to a fully automated and flexible platform, termed RIAS. In this modified setup, the sample was aspirated by a vacuum pump into a 10 μL sample loop for 250 ms and flushed onto a C4 cartridge (3.8 μL bed volume; Bio-Cius) with the aqueous mobile phase (99.9% water, 0.09% formic acid, and 0.01% TFA; flow rate 1.5 mL/min). Prior to bioanalysis samples were spiked with internal standard solution and diluted with acetonitrile (ACN) for protein precipitation. Measurement was operated in multiplereaction monitoring (MRM) mode. Quantification was performed using external calibration. A solid-phase extraction step retained the analyte for 3000 ms while interfering matrix (e.g., buffer components) was removed. With a simple step gradient, the analyte was back-eluted from the cartridge for 3,000 ms with the organic mobile phase (99.9% acetonitrile/methanol [1:1, v:v], 0.09% formic acid, and 0.01% TFA) and flushed into the mass spectrometer at a flow rate of 1.25 mL/min. Afterwards, the cartridge was re-equilibrated with the aqueous mobile phase for 500 ms (flow rate 1.5 mL/min).
Apparent permeability coefficients in the apical to basal direction (Papp,AB) and in the basal to apical direction (Papp,BA) and efflux ratios were calculated as follows: Papp,AB=QAB/(C0·s·t) Papp,BA=QBA/(C0·s·t) Efflux ratio=Papp,BA/Papp,AB
where Q is the amount of compound recovered in the receiver compartment after the incubation time t, C0 the initial compound concentration given to the donor compartment, and s the surface area of the Transwell inserts. […] In addition, transepithelial electrical resistance (TEER) values are measured for each plate before the permeability assay, and total recovery in donor and receiver compartments was determined for each compound.

T3 sequence (Q86WV6 whole entry, stated change not applied): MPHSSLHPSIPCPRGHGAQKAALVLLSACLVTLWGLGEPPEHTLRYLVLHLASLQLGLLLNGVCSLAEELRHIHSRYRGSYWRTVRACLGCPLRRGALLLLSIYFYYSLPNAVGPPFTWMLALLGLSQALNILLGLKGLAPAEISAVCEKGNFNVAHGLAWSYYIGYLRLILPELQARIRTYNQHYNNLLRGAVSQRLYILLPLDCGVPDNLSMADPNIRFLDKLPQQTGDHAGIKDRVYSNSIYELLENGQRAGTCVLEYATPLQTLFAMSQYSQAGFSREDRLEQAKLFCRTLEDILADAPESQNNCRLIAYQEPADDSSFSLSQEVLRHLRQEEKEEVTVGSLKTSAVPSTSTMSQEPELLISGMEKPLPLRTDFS
T4 sequence (Q86WV6 whole entry H232R/R293Q): as the sequence (Q86WV6 whole entry, stated change not applied) above, with H232R, R293Q counted along it
T2 sequence (Q86WV6 whole entry H232R): as the sequence (Q86WV6 whole entry, stated change not applied) above, with H232R counted along it
T1 sequence (Q86WV6 whole entry R71H/G230A/H232R/R293Q): as the sequence (Q86WV6 whole entry, stated change not applied) above, with R71H, G230A, H232R, R293Q counted along it
T5 sequence (Q86WV6 whole entry G230A/H232R/R293Q): as the sequence (Q86WV6 whole entry, stated change not applied) above, with G230A, H232R, R293Q counted along it

Row | Structure (SMILES) | thermal shift (ΔTm) [1] [K] | EC50 (STING HAQ-variant) [nM] | solubility kinetic at 24 h [2] [µg/mL] | EC50 (STING H232R-variant) [nM] | EC50 (STING R232H-variant) [nM] | EC50 (STING R293Q-variant) [nM] | EC50 (STING AQ-variant) [nM] | Papp A→B at 10 μM (in vitro) [×10⁻⁶ cm/s] | efflux ratio at 10 μM (in vitro)
1 | Cc1c(CO)ccc2c(-c3cccc4nn(C)cc34)nn(-c3ccc(N4CC5C(C4)C5C(=O)O)nc3)c12 (stereo not shown) [compound 71, 3-{5-[6-(hydroxymethyl)-2′,7-dimethyl-1H,2′H-[3,4′-biindazol]-1-yl]pyri-din-2-yl}-3-azabicy-clo[3.1.0]hexane-6-car-boxylic acid] | 29 | 600 | 67 (≈ 135 µM) |  |  |  |  |  | 
2 | Cc1cccc2c(-c3cccc4nn(C)cc34)nn(-c3ccc(N4CCN(CC(=O)O)C(=O)C4)nc3)c12 [compound 58, 2-[4-(5-{2′,7-dimethyl-1H,2′H-[3,4′-biindazol]-1-yl}pyridin-2-yl)-2-oxopi-perazin-1-yl]acetic acid] | 23 | 6800 | 84 (≈ 170 µM) |  |  |  |  |  | 
3 | Cc1cccc2c(-c3cccc4nn(C)cc34)nn(-c3ccc(N4CCC(c5nn[nH]n5)CC4)nc3)c12 [Example #19, 2′,7-dimethyl-1-{6-[4-(2H-1,2,3,4-tetrazol-5-yl)piperi-din-1-yl]pyridin-3-yl}-1H,2′H-3,4′-biindazole] | 21 | 6500 | 51 (≈ 104 µM) |  |  |  |  |  | 
4 | Cc1cccc2c(-c3cccc4nn(C)cc34)nn(-c3ccc(N4CCOCC4)nc3)c12 [compound 17, 2′,7-dimethyl-1-[6-(mor-pholin-4-yl)pyridin-3-yl]-1H,2′H-3,4′-biindazole] | 16 | 6800 |  | 2100 | 2000 | 6100 | 5700 | 26 | 0.3
5 | Cc1cccc2c(-c3cccc4nn(C)cc34)nn(-c3ccc(N4CCC5(CCC(=O)N5)CC4)nc3)c12 [Example #2, 8-(5-{2′,7-dimethyl-1H,2′H-[3,4′-biindazol]-1-yl}pyri-din-2-yl)-1,8-dia-zaspiro[4.5]decan-2-one] | 22 | 600 |  | 90 | 50 | 400 | 200 | 20 | 0.6
6 | Cc1c(-c2cnn(C)c2)ccc2c(-c3cccc4nn(C)cc34)nn(-c3ccc(N4CC5C(C4)C5C(=O)O)nc3)c12 (stereo not shown) [Example #28, 3-{5-[2′,7-dimethyl-6-(1-methyl-1H-pyrazol-4-yl)-1H,2′H-[3,4′-biindazol]-1-yl]pyridin-2-yl}-3-azabicy-clo[3.1.0]hexane-6-carbox-ylic acid] | 27 | 80 | 87 (≈ 160 µM) |  |  |  |  |  | 
7 | Cc1cc(C)c2c(c1)c(-c1cccc3nn(C)cc13)nn2-c1ccc(N2CCC(C(=O)O)CC2)nc1 [Example #70, 1-(5-{2′,5,7-trimethyl-1H,2′H-[3,4′-biindazol]-1-yl}pyridin-2-yl)piperidine-4-carboxylic acid] |  | 16100 | 74 (≈ 154 µM) |  |  |  |  | 18 | 1.2
8 | Cc1cccc2c(-c3cccc4nn(C)cc34)nn(-c3ccc(N4CC5(CCN(C=O)C5)C4)nc3)c12 [compound 53, 2-(5-{2′,7-dimethyl-1H,2′H-[3,4′-biinda-zol]-1-yl}pyridin-2-yl)-2,6-dia-zaspiro[3.4]octane-6-carbaldehyde] | 20 | 1700 |  | 700 | 700 | 1600 | 1900 | 50 | 0.2
9 | COC(=O)C1C2CN(c3ccc(-n4nc(-c5cccc6nn(C)cc56)c5cccc(C)c54)cn3)CC21 (stereo not shown) [Example #1, Methyl 3-(5-(2′,7-dimethyl-1H,2′H-[3,4′-biindazol]-1-yl)pyridin-2-yl)-3-azabicyclo[3.1.0]hexane-6-carboxylate] | 21 | 700 |  | 200 | 200 | 400 | 200 |  | 0.4
10 | Cc1cccc2c(-c3cccc4nn(C)cc34)nn(-c3ccc(N4CCC(S(N)(=O)=O)CC4)nc3)c12 [Example #22, 1-(5-{2′,7-dimethyl-1H,2′H-[3,4'′biindazol]-1-yl}pyri-din-2-yl)piperidine-4-sul-fonamide] | 23 | 700 |  | 100 | 200 | 700 | 700 | 10 | 1.6
